Experimental data from US8354526B2, “Pyrido [4, 3-D] pyrimidinone derivatives as kinase inhibitors” (IRM LLC, priority 2008, dated 2013).
Where two headings read alike, the source gives them in different places.

Legend:
hSyk (full length) = target: T1, hSyk (full length) (Homo sapiens, UniProt P43405); test: Inhibition of enzymatic Syk kinase activity (HTRF); type: biochemical
T1 construct: Purified recombinant hSyk (full length)
Procedure: (§1) Purified recombinant hSyk (full length) and Zap70 (kinase domain) diluted in assay buffer are dispensed in 384 well proxi-plates. […] 50 nL of diluted compounds are added to the enzyme solutions and incubated for […] at room temperature, after which ATP and biotynilated peptide substrate are added. Substrate phosphorylation is a function of the HTRF signal measured following the addition of Cisbio-HTRF reagents.

Zap70 (kinase domain) = target: T2, Zap70 (kinase domain) (Homo sapiens, UniProt P43403); test: Inhibition of enzymatic Zap70 kinase activity (HTRF); type: biochemical
T2 construct: Zap70 (kinase domain)
T2 sequence (P43403 338-600 limits assumed): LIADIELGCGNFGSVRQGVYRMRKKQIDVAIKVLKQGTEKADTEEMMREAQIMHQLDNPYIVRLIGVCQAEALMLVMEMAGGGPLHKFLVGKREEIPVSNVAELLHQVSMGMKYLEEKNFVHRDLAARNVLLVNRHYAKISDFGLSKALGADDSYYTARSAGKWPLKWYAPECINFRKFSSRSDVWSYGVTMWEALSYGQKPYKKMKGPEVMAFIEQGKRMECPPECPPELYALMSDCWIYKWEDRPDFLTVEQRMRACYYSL
Procedure: as §1

BaF3/Tel-KDR = target: T3, BaF3/Tel-KDR (Homo sapiens, UniProt P35968); test: BaF3/Tel-KDR cellular proliferation assay; type: cell-based, murine; settings: read-out: IC50 in BaF3/Tel-KDR cellular assay
T3 construct: fused on or other part: Dimerization domain of Tel (ETV6), fused to KDR; it is part of the key as ETV6; The host cells also express luciferase, which serves only as the read-out; P41212 (Transcription factor ETV6)
Procedure: (§2) Cells are maintained in RPMI/10% fetal calf serum (RPMI/FCS) supplemented with penicillin 50 μg/mL, streptomycin 50 μg/mL and L-glutamine 200 mM. Untransformed Ba/F3 cells are similarly maintained with the addition of murine recombinant IL3. Cells are dispensed into 384-well format plate at 5000 cell/well in 50 μL of culture medium. Compounds of the invention are dissolved and diluted in dimethylsufoxide (DMSO). Twelve points 1:3 serial dilutions are made into DMSO to create concentrations gradient ranging from 10 mM to 0.05 μM. Cells are added with 50 nL of diluted compounds and incubated for 48 hours in cell culture incubator. Luminiscent signal is measured following the addition of Bright Glo® (Promega) luciferase substrate. IC50 values are calculated by linear regression analysis of the percentage inhibition of each compound at 12 concentrations.

BaF3/Tel-Syk = target: T4, BaF3/Tel-Syk (Homo sapiens, UniProt P43405); test: BaF3/Tel-Syk cellular proliferation assay; type: cell-based, murine; settings: read-out: IC50 in BaF3/Tel-Syk cellular assay
T4 construct: fused on or other part: Dimerization domain of Tel (ETV6), fused to Syk; it is part of the key as ETV6; The host cells also express luciferase, which serves only as the read-out; P41212 (Transcription factor ETV6)
Procedure: as §2

BaF3/Tel-KIT = target: T5, BaF3/Tel-KIT (Homo sapiens, UniProt P10721); test: BaF3/Tel-KIT cellular proliferation assay; type: cell-based, murine; settings: read-out: IC50 in BaF3/Tel-KIT cellular assay
T5 construct: fused on or other part: Dimerizing part of Tel (ETV6), fused to c-Kit; P41212 (Transcription factor ETV6)
Procedure: (§3) Compounds of the invention are tested for their antiproliferative effect on Ba/F3 cells expressing either Tel-TrkA, Tel-TrkB or Tel-TrkC and an additional panel of 34 selected diverse kinases activated by fusion to the dimerizing partners Bcr or Tel (Abl, AlK, BMX, EphA3, EphB2, FGFR2, FGFR3, FGFR4, FGR, FLT1, FLT3, FLT4, FMS, IGF1R, InsR, JAK1, JAK2, JAK3, KDR, Kit, Lck, Lyn, MER, MET, PDGFRb, RET, RON, Ros-1, Src, Syk, TIE2, TYK2, Tie1, ZAP70). The antiproliferative effect of these compounds on the different cell lines and on the non transformed cells were tested at 12 different concentrations of 3-fold serially diluted compounds in 384 well plates as described above (in media lacking IL3). The IC50 values of the compounds the different cell lines were determined from the dose response curves obtained as describe above.
Compounds were tested for their ability to inhibit the proliferation of wt Ba/F3 cells and Ba/F3 cells transformed with Tel c-Kit fused tyrosine kinases. Untransformed Ba/F3 cells are maintained in media containing recombinant IL3. Cells are plated into 384 well TC plates at 5,000 cells in 50 ul media per well and test compound at 0.06 nM to 10 μM is added. […] After incubating the cells, 25 μL of BRIGHT GLO® (Promega) is added to each well following manufacturer's instructions and the plates are read using Analyst GT—Luminescence mode—50000 integration time in RLU.

BaF3/Tel-FMS = target: T6, BaF3/Tel-FMS (Homo sapiens, UniProt P07333); test: BaF3/Tel-FMS cellular proliferation assay; type: cell-based, murine; settings: read-out: IC50 in BaF3/Tel-FMS cellular assay
T6 construct: fused on or other part: Dimerizing part of Tel (ETV6), fused to FMS; it is part of the key as ETV6; P41212 (Transcription factor ETV6)
T6 sequence (P07333 582-910 limits assumed): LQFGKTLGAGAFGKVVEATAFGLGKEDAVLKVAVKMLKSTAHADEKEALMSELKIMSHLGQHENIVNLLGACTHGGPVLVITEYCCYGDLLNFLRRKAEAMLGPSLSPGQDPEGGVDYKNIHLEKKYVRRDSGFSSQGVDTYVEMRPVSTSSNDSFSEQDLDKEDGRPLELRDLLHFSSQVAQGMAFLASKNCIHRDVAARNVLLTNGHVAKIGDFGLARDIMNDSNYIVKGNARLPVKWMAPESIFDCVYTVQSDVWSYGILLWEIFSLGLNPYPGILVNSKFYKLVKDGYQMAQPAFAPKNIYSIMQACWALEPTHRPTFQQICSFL
Procedure: as §3

[1] = IC50 for Syk inhibition, Table 2, read-out: Syk HTRF

T5 sequence (P10721 589-937 limits assumed, change not shown): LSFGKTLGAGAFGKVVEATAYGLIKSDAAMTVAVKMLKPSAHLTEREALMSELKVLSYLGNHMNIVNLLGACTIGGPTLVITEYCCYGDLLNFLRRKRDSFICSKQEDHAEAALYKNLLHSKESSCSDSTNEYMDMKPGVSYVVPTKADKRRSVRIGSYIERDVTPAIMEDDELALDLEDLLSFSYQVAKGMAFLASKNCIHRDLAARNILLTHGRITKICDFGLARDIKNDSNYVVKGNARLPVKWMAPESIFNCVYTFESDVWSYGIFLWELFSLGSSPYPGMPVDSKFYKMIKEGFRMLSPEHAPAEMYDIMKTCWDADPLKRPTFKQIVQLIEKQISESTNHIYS
T3 sequence (P35968 834-1162 limits assumed, change not shown): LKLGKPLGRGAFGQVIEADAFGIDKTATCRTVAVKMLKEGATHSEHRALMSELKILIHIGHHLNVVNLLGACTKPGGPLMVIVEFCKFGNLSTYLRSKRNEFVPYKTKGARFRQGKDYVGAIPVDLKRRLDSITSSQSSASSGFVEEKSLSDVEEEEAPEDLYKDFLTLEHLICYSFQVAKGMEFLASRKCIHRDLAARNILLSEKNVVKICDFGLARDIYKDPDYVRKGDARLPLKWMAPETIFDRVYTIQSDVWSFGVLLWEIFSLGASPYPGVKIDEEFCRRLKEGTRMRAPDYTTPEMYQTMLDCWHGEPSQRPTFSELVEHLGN

Row | SMILES | IC50 (hSyk (full length); [1]) [nM] | also measured
1 | O=c1[nH]cnc2cc(NCc3ccncc3)nc(Nc3ccc(N4CCOCC4)cc3)c12 [Example 25] | 61 | –
2 | COc1ccc(-c2cc3ncn(C)c(=O)c3c(NCc3ccncc3)n2)cc1OC [Example 114] | 40 | –
3 | NCCCNc1cc2nc[nH]c(=O)c2c(Nc2ccc(N3CCOCC3)cc2)n1 [Example 13] | 5.66 | –
4 | COc1cc(-c2cc3ncn(C)c(=O)c3c(NCc3ccncc3)n2)ccc1N [Example 194] | 104 | –
5 | CC(C)Nc1nc(-c2ccc(C(C)(C)O)nc2)cc2ncn(C)c(=O)c12 [Example 6] | 190 | –
6 | O=c1[nH]cnc2cc(-c3ccccc3)nc(Nc3ccc(N4CCOCC4)cc3)c12 [Example 4a, 5-(4-morpholinophenylamino)-7-phenylpyrido[4,3-d]pyrimidin-4(3H)-one] | – | IC50 (Zap70 (kinase domain)): 38000 nM; GI50 (BaF3/Tel-KDR): 1860 nM; IC50 (hSyk (full length); read-out: IC50 in Syk enzymatic assay): 90 nM; GI50 (BaF3/Tel-Syk): 160 nM; GI50 (BaF3/Tel-KIT): 30 nM; GI50 (BaF3/Tel-FMS): 7 nM
7 | O=c1[nH]cnc2cc(-c3cc(Cl)ccc3Cl)nc(Nc3ccc(N4CCOCC4)cc3)c12 [Example 254] | 1120 | –
8 | COc1ccc(-c2cc3ncn(C)c(=O)c3c(NCCc3ccccn3)n2)cc1OC [Example 189] | 258 | –
9 | CNc1cc(CNc2nc(-c3ccc(OC)c(OC)c3)cc3ncn(C)c(=O)c23)ccn1 [Example 183] | 126 | –

Second part, led by results:

Row | IC50 (hSyk (full length); [1]) [nM] | SMILES | also measured
10 | 198 | Cn1cnc2cc(-c3ccc4c(c3)NC(=O)C(C)(C)O4)nc(NCC(F)F)c2c1=O [Example 273] | –
11 | 126 | CC(C)Nc1nc(-c2cnn(C)c2)cc2ncn(C)c(=O)c12 [Example 317] | –
12 | 113 | COc1cc(-c2cc3ncn(C)c(=O)c3c(NCC(F)F)n2)ccc1OCCCN1CCOCC1 [Example 366] | –
13 | 131 | CNS(=O)(=O)c1cc(-c2cc3ncn(C)c(=O)c3c(NC3CCC3)n2)ccc1OC [Example 415] | –
14 | 375 | Cn1cnc2cc(-c3cccc(S(C)(=O)=O)c3)nc(NC3CC3)c2c1=O [Example 349] | –
15 | 823 | O=c1[nH]cnc2cc(N3CCS(=O)(=O)CC3)nc(Nc3ccc(N4CCOCC4)nc3)c12 [Example 305] | –
16 | 376 | CNc1nc(-c2ccc(C(C)(C)O)nc2)cc2ncn(C)c(=O)c12 [Example 352] | –
17 | 84.3 | Cn1cnc2cc(-c3ccc4c(c3)NC(=O)C4)nc(NCc3ccnc(N)c3)c2c1=O [Example 278] | –
18 | 340 | CC(C)Nc1nc(-c2cnc3[nH]ccc3c2)cc2ncn(C)c(=O)c12 [Example 324] | –
19 | 114 | COc1cc(-c2cc3ncn(C)c(=O)c3c(NC[C@H](C)O)n2)ccc1OCCCN1CCOCC1 [Example 372] | –
20 | 531 | COc1ccc(-c2cc3ncn(C)c(=O)c3c(Nc3ccc4cn[nH]c4c3)n2)cc1OC [Example 418] | –
21 | 42.7 | CN1CCC(c2ccc(Nc3nc(N4CCC(N5CCCCC5)CC4)cc4nc[nH]c(=O)c34)cc2)CC1 [Example 313] | –
22 | 139 | COCCOc1cc(-c2cc3ncn(C)c(=O)c3c(NCC(F)F)n2)ccc1OC [Example 270] | –
